Measurements reported in patent publication US11306121B2, “Composition for muscle relaxation” (CAREGEN CO., LTD., priority 2018, dated 2022).
Where two headings read alike, the source gives them in different places. Residues, ends and D or L forms follow the SMILES beside them.

Legend:
[1] = 1,000 ppm in sterile distilled water, warmed at 121° C., maximum warming time of 30 minutes
[2] = 1,000 ppm in sterile distilled water, stored at 45° C., maximum observation time of 75 days

In the case of CC[C@H](C)[C@H](NC(=O)[C@H](CC(C)C)NC(=O)[C@H](Cc1ccccc1)NC(=O)[C@@H](N)CCCCN)C(=O)N[C@@H](CCCCN)C(=O)O [peptide of the present invention, KFLIK] (H-KFLIK-OH; N-terminus and C-terminus assumed), the “stability of the peptide (HPLC assay)” value [1] is reported as “maintained” and the “stability of the peptide (HPLC assay)” value [2] is reported as “maintained”.
